The target in one test is T1, mTOR (Homo sapiens, UniProt P42345+P62942).
T1 construct: endogenous in cells
The experiment in a line: p70 S6K phosphorylation immunoblot. It is filed as cell-based. As to conditions: targeting concentrations. (In general: Immunoblotting shows a protein as a band on a membrane.)

In test [1] the test system is HS578T subcutaneous xenografts. The experiment in a line: HS578T subcutaneous xenografts, AdSyn-CO335 study. To be noted: 28 days, 8 mg/kg rapamycin alone, no virus infection.
Procedure: Oncolytic activity of AdSyn-CO335 was tested in vitro and in vivo. HS578T cells were infected with a serial dilution of AdSyn-CO335. At 24, 48, 72 and 96 hours after infection, fresh rapamycin or AP21967 was added to 50 nM. The metabolic activity was quantified by WST-1 assay, and was normalized to uninfected cells with a matching drug treatment. […] To evaluate AdSyn-CO335 in vivo, HS578T subcutaneous xenografts were established in mice. […]
Two perpendicular tumor diameters (l and w) were measured weekly to follow tumor progression. Tumor volumes were calculated by use of the modified ellipsoid formula where vol=½ (l*w^2) (Euhus et al., J Surg Oncol 31(4):229-2341986; Tomayko et al., Cancer Chemother Pharmacol 24(3):148-154, 1989).
On days 0, 3, and 6, mice were injected intratumorally with 2×10^8 PFU of adenovirus diluted in 50 μl PBS. […] Body weight was monitored for toxicity, and tumor sizes were measured while blinded to treatment groups. […]

Turning to `CO[C@H]1[C@@H](O)[C@H](C)C[C@H](C)/C=C/C=C/C=C(\C)[C@@H](c2c[nH]c3c(C)cccc23)C[C@@H]2CC[C@@H](C)[C@@](O)(O2)C(=O)C(=O)N2CCCC[C@H]2C(=O)O[C@H]([C@H](C)C[C@@H]2CC[C@@H](O)[C@H](OC)C2)C[C@H](O)[C@H](C)/C=C(\C)[C@H]1O` [AP21967], on mTOR, the “phosphorylation of p70 S6K (mTOR inhibition)” value was “does not inhibit mTOR at targeting concentrations”.
`CO[C@H]1C[C@@H]2CC[C@@H](C)[C@@](O)(O2)C(=O)C(=O)N2CCCC[C@H]2C(=O)O[C@H]([C@H](C)C[C@@H]2CC[C@@H](O)[C@H](OC)C2)CC(=O)[C@H](C)/C=C(\C)[C@@H](O)[C@@H](OC)C(=O)[C@H](C)C[C@H](C)/C=C/C=C/C=C/1C` [rapamycin, Rapamycin] came in with a mean tumor volume in test [1] of 229±49 mm^3.

The values are drawn from US12514887B2, “Oncolytic tumor viruses and methods of use” (priority 2014, dated 2026).
